Measurements: ChEMBL document CHEMBL1201862, “PubChem BioAssay data set” (2004)
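How tested: cells in 96-well plates exposed to compound for 48 hours at five concentrations. Abbreviation: GI50, concentration required for 50% inhibition of growth.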 The source made the active and inactive calls. Rule as the data show it: active = GI50 up to about 1.1 µM and inactive = higher.

Legend:
Experiment in all cases: NCI anticancer screen, dose series, 48 h
[1] = tested on: SK-MEL-5
[2] = tested on: Malme-3M
[3] = tested on: NCI-H23
[4] = tested on: NCI-H460
[5] = tested on: OVCAR-4
[6] = tested on: SK-MEL-28
[7] = tested on: CAKI-1
[8] = tested on: NCI-H226
[9] = tested on: HOP-62
[10] = tested on: ACHN
[11] = tested on: MCF7
[12] = tested on: HL-60
[13] = tested on: UO-31
[14] = tested on: SNB-19
[15] = tested on: K562
[16] = tested on: HCT-15
[17] = tested on: COLO 205
[18] = tested on: HCT-116
[19] = tested on: CCRF-CEM
[20] = tested on: SF-268
[21] = tested on: IGROV-1
[22] = tested on: SF-295
[23] = tested on: UACC-257
[24] = tested on: HOP-92
[25] = tested on: OVCAR-5
[26] = tested on: MDA-MB-231
[27] = tested on: RPMI-8226
[28] = tested on: MOLT-4
[29] = tested on: M14
[30] = tested on: RXF 393
[31] = tested on: PC-3
[32] = tested on: SN12C
[33] = tested on: DU-145
[34] = tested on: NCI/ADR-RES
[35] = tested on: SW-620
[36] = tested on: A498
[37] = tested on: KM12
[38] = tested on: OVCAR-3
[39] = tested on: TK-10
[40] = tested on: UACC-62
[41] = tested on: MDA-N
[42] = tested on: U-251
[43] = tested on: A549
[44] = tested on: SR
[45] = tested on: SF-539
[46] = tested on: BT-549
[47] = tested on: MDA-MB-435
[48] = tested on: T47D
[49] = tested on: EKVX
[50] = tested on: HCC 2998
[51] = tested on: 786-0
[52] = tested on: OVCAR-8
[53] = tested on: HT-29
[54] = tested on: SNB-75
[55] = tested on: NCI-H522
[56] = tested on: SK-OV-3
[57] = tested on: SK-MEL-2
[58] = tested on: Hs-578T
[59] = tested on: LOX IMVI

Clc1ccc(-c2noc(CN3CCCCC3)n2)cc1
GI50 [1]: 34 µM (inactive)
GI50 [2]: > 100 µM (inactive)
GI50 [3]: > 100 µM (inactive)
GI50 [4]: > 100 µM (inactive)
GI50 [5]: > 100 µM (inactive)
GI50 [6]: > 100 µM (inactive)
GI50 [7]: > 100 µM (inactive)
GI50 [8]: > 100 µM (inactive)
GI50 [9]: > 100 µM (inactive)
GI50 [10]: > 100 µM (inactive)
GI50 [11]: > 100 µM (inactive)
GI50 [12]: 85.9 µM (inactive)
GI50 [13]: > 100 µM (inactive)
GI50 [14]: > 100 µM (inactive)
GI50 [15]: 55.8 µM (inactive)
GI50 [16]: > 100 µM
GI50 [17]: 90.2 µM (inactive)
GI50 [18]: 90.2 µM (inactive)
GI50 [19]: 77.1 µM (inactive)
GI50 [20]: > 100 µM (inactive)
GI50 [21]: > 100 µM (inactive)
GI50 [22]: 66.8 µM (inactive)
GI50 [23]: 71 µM (inactive)
GI50 [24]: > 100 µM (inactive)
GI50 [25]: > 100 µM (inactive)
GI50 [26]: > 100 µM (inactive)
GI50 [27]: 43.9 µM (inactive)
GI50 [28]: 49.7 µM (inactive)
GI50 [29]: > 100 µM (inactive)
GI50 [30]: 44 µM (inactive)
GI50 [31]: > 100 µM (inactive)
GI50 [32]: > 100 µM (inactive)
GI50 [33]: > 100 µM (inactive)
GI50 [34]: 46.5 µM (inactive)
GI50 [35]: > 100 µM (inactive)
GI50 [36]: > 100 µM (inactive)
GI50 [37]: > 100 µM (inactive)
GI50 [38]: 67.9 µM (inactive)
GI50 [39]: > 100 µM (inactive)
GI50 [40]: > 100 µM (inactive)
GI50 [41]: > 100 µM (inactive)
GI50 [42]: > 100 µM (inactive)
GI50 [43]: > 100 µM (inactive)
GI50 [44]: 63.1 µM (inactive)
GI50 [45]: > 100 µM (inactive)
GI50 [46]: > 100 µM (inactive)
GI50 [47]: > 100 µM (inactive)
GI50 [48]: 47.8 µM (inactive)
GI50 [49]: 54 µM (inactive)
GI50 [50]: 58.9 µM (inactive)
GI50 [51]: > 100 µM (inactive)
GI50 [52]: > 100 µM (inactive)
GI50 [53]: 46.2 µM (inactive)
GI50 [54]: > 100 µM (inactive)
GI50 [55]: 81.1 µM (inactive)
GI50 [56]: > 100 µM (inactive)
GI50 [57]: > 100 µM (inactive)
GI50 [58]: > 100 µM (inactive)

CN1CCN(CCCNN)CC1
GI50 [1]: > 100 µM (inactive)
GI50 [3]: > 100 µM (inactive)
GI50 [4]: > 100 µM (inactive)
GI50 [5]: > 100 µM (inactive)
GI50 [6]: > 100 µM (inactive)
GI50 [7]: > 100 µM (inactive)
GI50 [8]: > 100 µM (inactive)
GI50 [9]: > 100 µM (inactive)
GI50 [10]: > 100 µM (inactive)
GI50 [11]: > 100 µM (inactive)
GI50 [12]: 7.33 µM (inactive)
GI50 [13]: > 100 µM (inactive)
GI50 [14]: > 100 µM (inactive)
GI50 [15]: 1.87 µM (inactive)
GI50 [16]: > 100 µM
GI50 [17]: > 100 µM (inactive)
GI50 [18]: > 100 µM (inactive)
GI50 [20]: > 100 µM (inactive)
GI50 [21]: > 100 µM (inactive)
GI50 [22]: > 100 µM (inactive)
GI50 [23]: > 100 µM (inactive)
GI50 [24]: > 100 µM (inactive)
GI50 [25]: > 100 µM (inactive)
GI50 [59]: > 100 µM (inactive)
GI50 [26]: > 100 µM (inactive)
GI50 [27]: 86.7 µM (inactive)
GI50 [28]: 0.305 µM (active)
GI50 [29]: > 100 µM (inactive)
GI50 [30]: > 100 µM (inactive)
GI50 [31]: > 100 µM (inactive)
GI50 [32]: > 100 µM (inactive)
GI50 [33]: > 100 µM (inactive)
GI50 [34]: > 100 µM (inactive)
GI50 [35]: > 100 µM (inactive)
GI50 [36]: > 100 µM (inactive)
GI50 [37]: > 100 µM (inactive)
GI50 [38]: > 100 µM (inactive)
GI50 [39]: > 100 µM (inactive)
GI50 [40]: > 100 µM (inactive)
GI50 [41]: > 100 µM (inactive)
GI50 [42]: > 100 µM (inactive)
GI50 [43]: > 100 µM (inactive)
GI50 [44]: 0.0327 µM (active)
GI50 [45]: > 100 µM (inactive)
GI50 [46]: > 100 µM (inactive)
GI50 [47]: > 100 µM (inactive)
GI50 [48]: > 100 µM (inactive)
GI50 [49]: > 100 µM (inactive)
GI50 [50]: > 100 µM (inactive)
GI50 [51]: > 100 µM (inactive)
GI50 [52]: > 100 µM (inactive)
GI50 [53]: > 100 µM (inactive)
GI50 [54]: > 100 µM (inactive)
GI50 [55]: > 100 µM (inactive)
GI50 [56]: > 100 µM (inactive)
GI50 [57]: > 100 µM (inactive)
GI50 [58]: > 100 µM (inactive)

COc1ccc2o/c(=N\c3ccc(F)cc3)c(C(N)=O)cc2c1
GI50 [1]: > 100 µM (inactive)
GI50 [2]: 47.1 µM (inactive)
GI50 [3]: 29.3 µM (inactive)
GI50 [4]: > 100 µM (inactive)
GI50 [5]: 27.9 µM (inactive)
GI50 [6]: > 100 µM (inactive)
GI50 [7]: 45.6 µM (inactive)
GI50 [8]: 36.6 µM (inactive)
GI50 [9]: 29.1 µM (inactive)
GI50 [10]: 30.5 µM (inactive)
GI50 [11]: 56.8 µM (inactive)
GI50 [12]: > 100 µM (inactive)
GI50 [13]: 46.8 µM (inactive)
GI50 [14]: 38.5 µM (inactive)
GI50 [15]: > 100 µM (inactive)
GI50 [16]: > 100 µM
GI50 [17]: > 100 µM (inactive)
GI50 [18]: 22.8 µM (inactive)
GI50 [19]: > 100 µM (inactive)
GI50 [20]: 43 µM (inactive)
GI50 [21]: 79.3 µM (inactive)
GI50 [22]: 33.7 µM (inactive)
GI50 [23]: > 100 µM (inactive)
GI50 [24]: 27.4 µM (inactive)
GI50 [25]: > 100 µM (inactive)
GI50 [59]: > 100 µM (inactive)
GI50 [26]: 16.3 µM (inactive)
GI50 [27]: > 100 µM (inactive)
GI50 [28]: > 100 µM (inactive)
GI50 [29]: > 100 µM (inactive)
GI50 [30]: 12.4 µM (inactive)
GI50 [31]: > 100 µM (inactive)
GI50 [32]: 42 µM (inactive)
GI50 [33]: > 100 µM (inactive)
GI50 [34]: 30.2 µM (inactive)
GI50 [35]: > 100 µM (inactive)
GI50 [36]: 20 µM (inactive)
GI50 [37]: > 100 µM (inactive)
GI50 [38]: 49.9 µM (inactive)
GI50 [39]: 21.6 µM (inactive)
GI50 [40]: 35.3 µM (inactive)
GI50 [41]: > 100 µM (inactive)
GI50 [42]: 34.7 µM (inactive)
GI50 [43]: 64.3 µM (inactive)
GI50 [44]: > 100 µM (inactive)
GI50 [46]: > 100 µM (inactive)
GI50 [47]: > 100 µM (inactive)
GI50 [48]: 19.4 µM (inactive)
GI50 [49]: > 100 µM (inactive)
GI50 [50]: > 100 µM (inactive)
GI50 [51]: 10.5 µM (inactive)
GI50 [52]: 17.8 µM (inactive)
GI50 [53]: > 100 µM (inactive)
GI50 [54]: 12.6 µM (inactive)
GI50 [55]: 28.9 µM (inactive)
GI50 [56]: 17 µM (inactive)
GI50 [57]: 22.8 µM (inactive)
GI50 [58]: 62.1 µM (inactive)
